How the values were obtained:
Assay in all cases: relative viability (nuclei count vs DMSO), 5 days (fraction); higher = more cells survive
Kobe2602 + Dasatinib = compound: C1=CC(=CC=C1NC(=S)NNC2=C(C=C(C=C2[N+](=O)[O-])C(F)(F)F)[N+](=O)[O-])F [Kobe2602] + Cc1nc(Nc2ncc(C(=O)Nc3c(C)cccc3Cl)s2)cc(N2CCN(CCO)CC2)n1 [Dasatinib] (partner 0.075 µM)
Outline: (§1)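 Lung cancer cell lines were seeded in 1536-well plates and dosed by pin tool the next day, with either a single drug or a fixed anchor-drug dose combined with five library-drug doses (not always all listed) spaced in √10 steps. Five days later, one step fixed the cells and stained their nuclei (final 0.05% Triton X-100, 1% formaldehyde, 1 ug/ml Hoechst), and nuclei were counted on 4× images. Relative viability is the nuclei count in treated wells divided by the count in vehicle wells, and each value is the median of duplicate plates.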

[1] = compound: COc1cc2nccc(Oc3ccc(NC(=O)C4(C(=O)Nc5ccc(F)cc5)CC4)cc3)c2cc1OC [Cabozantinib] + CC(=O)c1c(C)c2cnc(Nc3ccc(N4CCNCC4)cn3)nc2n(C2CCCC2)c1=O [Palbociclib] (partner 0.5 µM)
Outline: as §1

[2] = compound: COc1cc2nccc(Oc3ccc(NC(=O)C4(C(=O)Nc5ccc(F)cc5)CC4)cc3)c2cc1OC [Cabozantinib] + CC1(C)CCC(c2ccc(Cl)cc2)=C(CN2CCN(c3ccc(C(=O)NS(=O)(=O)c4ccc(N[C@H](CCN5CCOCC5)CSc5ccccc5)c(S(=O)(=O)C(F)(F)F)c4)cc3)CC2)C1 [Navitoclax] (partner 0.5 µM)
Outline: as §1

Zosuquidar + AZD7762 = compound: O[C@@H](COc1cccc2ncccc12)CN1CCN([C@@H]2c3ccccc3[C@@H]3[C@H](c4ccccc42)C3(F)F)CC1 [Zosuquidar] + NC(=O)Nc1cc(-c2cccc(F)c2)sc1C(=O)N[C@H]1CCCNC1 [AZD7762] (partner 0.2 µM)
Outline: as §1

| Cell Line | relative viability (Kobe2602 + Dasatinib; first compound 0.2 µM) | relative viability (Kobe2602 + Dasatinib; first compound 0.6325 µM) | relative viability (Kobe2602 + Dasatinib; first compound 2 µM) | relative viability (Kobe2602 + Dasatinib; first compound 6.325 µM) | relative viability (Kobe2602 + Dasatinib; first compound 20 µM) | relative viability ([1]; first compound 0.02 µM) | relative viability ([1]; first compound 0.06325 µM) | relative viability ([1]; first compound 0.2 µM) | relative viability ([1]; first compound 0.6325 µM) | relative viability ([1]; first compound 2 µM) | relative viability ([2]; first compound 0.02 µM) | relative viability ([2]; first compound 0.06325 µM) | relative viability ([2]; first compound 0.2 µM) | relative viability ([2]; first compound 0.6325 µM) | relative viability ([2]; first compound 2 µM) | relative viability (Zosuquidar + AZD7762; first compound 0.01 µM) | relative viability (Zosuquidar + AZD7762; first compound 0.03162 µM) | relative viability (Zosuquidar + AZD7762; first compound 0.1 µM) | relative viability (Zosuquidar + AZD7762; first compound 0.3162 µM) | relative viability (Zosuquidar + AZD7762; first compound 1 µM) |
| --- | --- | --- | --- | --- | --- | --- | --- | --- | --- | --- | --- | --- | --- | --- | --- | --- | --- | --- | --- | --- |
| 201T | 0.618 | 0.59 | 0.568 | 0.497 | 0.484 | 0.352 | 0.342 | 0.332 | 0.371 | 0.384 | 1.2 | 1.25 | 1.19 | 1.2 | 1.24 | 0.592 | 0.623 | 0.67 | 0.685 | 0.731 |
| A549 | – | – | – | – | – | – | – | – | – | – | 1.26 | 1.24 | 1.21 | 1.27 | 1.08 | – | – | – | – | – |
| A-427 | 0.673 | 0.766 | 0.675 | 0.701 | 0.779 | 0.524 | 0.584 | 0.521 | 0.493 | 0.527 | 0.988 | 1.03 | 0.998 | 0.978 | 0.978 | 0.759 | 0.798 | 0.693 | 0.764 | 0.705 |
| ABC-1 | 0.615 | 0.568 | – | 0.769 | 0.47 | – | 0.734 | 0.707 | 0.855 | 0.654 | – | – | – | – | – | 0.69 | 0.864 | 0.665 | 0.717 | 0.733 |
| BEN | 0.322 | 0.353 | 0.395 | 0.303 | 0.324 | 0.525 | 0.507 | 0.47 | 0.425 | 0.463 | 0.05 | 0.0759 | 0.0381 | 0.213 | 0.0541 | 0.738 | 0.615 | 0.518 | 0.724 | 0.589 |
| CAL-12T | 0.462 | 0.388 | 0.413 | 0.474 | 0.376 | 0.435 | 0.583 | 0.408 | 0.497 | 0.572 | 1.51 | 1.2 | 1.37 | 1.17 | 1.46 | 0.586 | 0.626 | 0.469 | 0.632 | 0.738 |
| COR-L23 | 0.507 | 0.561 | 0.482 | 0.55 | 0.555 | 0.299 | 0.295 | 0.29 | 0.391 | 0.297 | 1.07 | 1.16 | 1.03 | 0.973 | 0.931 | – | – | – | – | – |
| COR-L 105 | 0.392 | 0.366 | 0.357 | 0.362 | 0.338 | 0.409 | 0.4 | 0.378 | 0.411 | 0.413 | 0.789 | 0.771 | – | 0.657 | 0.743 | – | – | – | – | – |
| Calu-6 | – | – | – | – | – | – | – | – | – | – | 0.76 | 0.912 | 0.801 | 0.739 | 0.773 | – | – | – | – | – |
| ChaGo-K-1 | 0.646 | 0.57 | 0.604 | 0.59 | 0.576 | 1.05 | 1.05 | 0.906 | 0.899 | 0.871 | 0.823 | 1.28 | 0.972 | 0.562 | 1.04 | 0.807 | 0.799 | 0.896 | 0.818 | 0.93 |
| EBC-1 | – | – | – | – | – | – | – | – | – | – | 0.444 | 0.302 | 0.152 | 0.125 | 0.0913 | – | – | – | – | – |
| EKVX | 0.6 | 0.578 | 0.513 | 0.474 | 0.454 | 0.397 | 0.41 | 0.307 | 0.394 | 0.544 | 0.899 | 1.1 | 0.879 | 1.03 | 1.07 | 0.747 | 0.77 | – | 0.752 | 0.659 |
| EMC-BAC-2 | 0.33 | 0.322 | 0.338 | 0.367 | 0.376 | 0.531 | 0.551 | 0.552 | 0.533 | 0.543 | 1.16 | 1.36 | 1.2 | 1.14 | 1.22 | 1.1 | 1.15 | 1.11 | 1.26 | 0.979 |
| EPLC-272H | 0.387 | 0.387 | 0.303 | 0.331 | 0.355 | 0.3 | 0.317 | 0.277 | 0.34 | 0.305 | 1.11 | 1.11 | 0.927 | 1.02 | 1.12 | 0.233 | 0.154 | 0.29 | 0.32 | 0.222 |
| H3255 | 0.532 | 0.42 | 0.408 | 0.356 | 0.349 | 0.317 | 0.351 | – | 0.339 | 0.325 | 0.491 | 0.676 | – | 0.687 | 0.553 | 1.03 | 0.832 | 0.766 | 0.95 | 0.795 |
| HARA | 0.258 | 0.311 | 0.321 | 0.252 | 0.286 | 0.323 | 0.29 | 0.218 | 0.344 | 0.263 | 1.17 | 1.16 | 1.12 | 1.19 | 1.17 | 0.429 | 0.343 | 0.304 | 0.344 | 0.322 |
| HCC-15 | 0.586 | 0.658 | 0.555 | 0.574 | 0.494 | 0.824 | 0.797 | 0.716 | 0.718 | 0.672 | 0.743 | 0.739 | 0.77 | 0.67 | 0.645 | 1.11 | 1.27 | 1.17 | 1.18 | 1.16 |
| HCC-44 | – | – | – | – | – | 1.04 | 1.05 | 0.998 | 0.977 | 1.03 | 1.01 | 1.1 | 1.02 | 1.07 | 0.965 | 1.02 | 1.11 | 1.02 | 1.01 | 1 |
| HCC-78 | 0.413 | 0.393 | 0.373 | 0.427 | 0.535 | – | 0.444 | 0.413 | 0.467 | 0.435 | 0.71 | 0.682 | 0.307 | 0.224 | 0.186 | 0.685 | – | – | 0.72 | 0.524 |

— the supplement of paper PMC10307832
